Test results reported in patent US11827657B2, “Boron containing pyrazole compounds, compositions comprising them, methods and uses thereof” (BOEHRINGER INGELHEIM ANIMAL HEALTH USA INC., priority 2020, dated 2023).

Biological target: JAK1 (Homo sapiens, UniProt P23458)
Experiment: Biochemical Kinase Assay (JAK), 33P-ATP filter-binding
Settings: Biochemical Kinase Inhibition Assay; potency level of IC50; read-out: JAK1 (range)
Protocol: Biochemical Kinase Assay Protocol (JAK) • Reagent: Base Reaction buffer; 20 mM Hepes (pH 7.5), 10 mM MgCl2, 1 mM EGTA, 0.02% Brij™ 35, 0.02 mg/ml BSA, 0.1 mM Na3VO4, 2 mM DTT, 1% DMSO, where required cofactors were added individually to each kinase reaction.
Reaction Procedure: • 1. Prepared indicated substrate in freshly prepared Base Reaction Buffer • 2. Delivered any required cofactors to the substrate solution above • 3. Delivered indicated kinase into the substrate solution and gently mix • 4. Delivered compounds in DMSO into the kinase reaction mixture by Acoustic technology (Echo550; nanoliter range), incubated for 20 minutes at room temperature • 5. Delivered 33P-ATP into the reaction mixture to initiate the reaction. • 6. Incubated kinase reaction for 2 hours at room temperature • 7. Reactions were spotted onto P81 ion exchange paper • 8. Detected kinase activity by filter-binding method.
Compounds according to the present invention were tested in the Biochemical Kinase Assay Protocol. The results are provided below in Table 1, wherein the potency levels A, B, and C in the columns labeled JAK1 (range) correspond to IC50 as follows: A<10 nM; B=10-50 nM and C>50 nM. The Example Number entries formatted ##a represent stereoisomer one and entries formatted ##b represent stereoisomer two.

JAK1, sequence (P23458 whole entry, species assumed): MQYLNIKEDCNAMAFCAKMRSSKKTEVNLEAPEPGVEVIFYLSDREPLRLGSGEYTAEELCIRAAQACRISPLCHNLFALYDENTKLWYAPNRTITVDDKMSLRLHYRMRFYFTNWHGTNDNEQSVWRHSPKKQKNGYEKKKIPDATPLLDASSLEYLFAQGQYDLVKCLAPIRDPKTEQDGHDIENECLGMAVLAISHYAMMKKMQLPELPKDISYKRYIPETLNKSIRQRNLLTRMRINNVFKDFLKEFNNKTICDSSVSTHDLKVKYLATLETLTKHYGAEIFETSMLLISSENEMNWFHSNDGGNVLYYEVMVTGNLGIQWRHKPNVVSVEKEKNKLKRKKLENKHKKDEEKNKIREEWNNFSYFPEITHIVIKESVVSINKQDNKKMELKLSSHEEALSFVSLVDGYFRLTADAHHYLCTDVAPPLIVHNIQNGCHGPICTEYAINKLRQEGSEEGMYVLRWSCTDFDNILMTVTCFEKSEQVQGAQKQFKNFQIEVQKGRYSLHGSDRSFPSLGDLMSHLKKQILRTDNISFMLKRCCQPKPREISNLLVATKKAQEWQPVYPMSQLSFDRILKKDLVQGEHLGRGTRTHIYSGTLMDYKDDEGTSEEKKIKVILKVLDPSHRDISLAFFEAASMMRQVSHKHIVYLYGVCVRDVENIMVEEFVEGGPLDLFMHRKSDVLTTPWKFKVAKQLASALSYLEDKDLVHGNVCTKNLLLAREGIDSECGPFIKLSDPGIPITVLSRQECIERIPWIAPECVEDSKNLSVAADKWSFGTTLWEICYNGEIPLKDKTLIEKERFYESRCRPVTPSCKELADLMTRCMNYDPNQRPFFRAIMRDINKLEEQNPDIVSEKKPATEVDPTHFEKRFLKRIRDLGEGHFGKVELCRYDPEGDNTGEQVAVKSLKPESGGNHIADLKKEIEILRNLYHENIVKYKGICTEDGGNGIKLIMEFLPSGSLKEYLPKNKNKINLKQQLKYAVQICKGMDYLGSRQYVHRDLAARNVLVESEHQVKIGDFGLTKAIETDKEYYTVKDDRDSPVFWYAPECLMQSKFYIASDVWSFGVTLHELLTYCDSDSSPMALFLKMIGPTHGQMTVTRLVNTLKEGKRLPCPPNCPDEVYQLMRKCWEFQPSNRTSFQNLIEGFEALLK

SMILES	IC50 [µM]
N#C[C@@H]1CCOC[C@H]1n1cc(C(N)=O)c(Nc2cc(F)c3c(c2)B(O)OC3)n1 (relative stereo) [Example 1, 1-[trans-4-cyanotetrahydro-2H-pyran-3-yl]-3-[(4-fluoro-1-hydroxy-3H-2,1-benzoxaborol-6-yl)amino]pyrazole-4-carboxamide]	0.01 to 0.05
N#C[C@@H]1CCOC[C@H]1n1cc(C(N)=O)c(Nc2ccc3c(c2)OB(O)C=C3)n1 (relative stereo) [Example 2, 1-[trans-4-cyanotetrahydro-2H-pyran-3-yl]-3-[(2-hydroxy-1,2-benzoxaborinin-7-yl)amino]pyrazole-4-carboxamide]	> 0.05
CC1=C(C)c2cc(Nc3nn([C@@H]4COCC[C@H]4C#N)cc3C(N)=O)ccc2OB1O (relative stereo) [Example 4, 1-(trans-4-cyanotetrahydro-2H-pyran-3-yl)-3-((2-hydroxy-3,4-dimethyl-2H-benzo[e][1,2]oxaborinin-6-yl)amino)-1H-pyrazole-4-carboxamide]	< 0.01
CC1=Cc2cc(Nc3nn([C@@H]4COCC[C@H]4C#N)cc3C(N)=O)ccc2OB1O (relative stereo) [Example 5, 1-(trans-4-cyanotetrahydro-2H-pyran-3-yl)-3-((2-hydroxy-3-methyl-2H-benzo[e][1,2]oxaborinin-6-yl)amino)-1H-pyrazole-4-carboxamide]	< 0.01
N#C[C@@H]1CCOC[C@H]1n1cc(C(N)=O)c(Nc2ccc3c(c2)CCOB3O)n1 (relative stereo) [Example 7, 1-(trans-4-cyanotetrahydro-2H-pyran-3-yl)-3-((1-hydroxy-3,4-dihydro-1H-benzo[c][1,2]oxaborinin-6-yl)amino)-1H-pyrazole-4-carboxamide]	< 0.01
N#C[C@@H]1CCC[C@H]1n1cc(C(N)=O)c(Nc2ccc3c(c2)C=CB(O)O3)n1 (relative stereo) [Example 8, 1-(trans-2-cyanocyclopentyl)-3-[(2-hydroxy-1,2-benzoxaborinin-6-yl)amino]pyrazole-4-carboxamide]	< 0.01
N#C[C@@H]1CCCC[C@H]1n1cc(C(N)=O)c(Nc2ccc3c(c2)B(O)OC3)n1 (relative stereo) [Example 9, 1-(trans-2-cyanocyclohexyl)-3-[(1-hydroxy-3H-2,1-benzoxaborol-6-yl)amino]pyrazole-4-carboxamide]	< 0.01
N#C[C@@H]1CCC[C@H]1n1cc(C(N)=O)c(Nc2ccc3c(c2)B(O)OC3)n1 (relative stereo) [Example 10, 1-(trans-2-cyanocyclopentyl)-3-[(1-hydroxy-3H-2,1-benzoxaborol-6-yl)amino]pyrazole-4-carboxamide]	0.01 to 0.05
N#C[C@@H]1CCCC[C@H]1n1cc(C(N)=O)c(Nc2ccc3c(c2)COB3O)n1 (relative stereo) [Example 11, 1-(trans-2-cyanocyclohexyl)-3-((1-hydroxy-1,3-dihydrobenzo[c][1,2]oxaborol-5-yl)amino)-1H-pyrazole-4-carboxamide]	< 0.01
N#C[C@@H]1CCC[C@H]1n1cc(C(N)=O)c(Nc2ccc3c(c2)COB3O)n1 (relative stereo) [Example 12, 1-(trans-2-cyanocyclopentyl)-3-((1-hydroxy-1,3-dihydrobenzo[c][1,2]oxaborol-5-yl)amino)-1H-pyrazole-4-carboxamide]	< 0.01
CC1=Cc2cc(Nc3nn([C@@H]4CCC[C@H]4C#N)cc3C(N)=O)cc(F)c2OB1O (relative stereo) [Example 15, 1-(trans-2-cyanocyclopentyl)-3-[(8-fluoro-2-hydroxy-3-methyl-1,2-benzoxaborinin-6-yl)amino]pyrazole-4-carboxamide]	< 0.01
N#C[C@@H]1CCCC[C@H]1n1cc(C(N)=O)c(Nc2ccc3c(c2)C=CB(O)O3)n1 (relative stereo) [Example 18, 1-(trans-2-cyanocyclohexyl)-3-[(2-hydroxy-1,2-benzoxaborinin-6-yl)amino]pyrazole-4-carboxamide]	< 0.01
CC(C)(C)C1=Cc2cc(Nc3nn([C@@H]4COCC[C@H]4C#N)cc3C(N)=O)ccc2OB1O (relative stereo) [Example 19, 3-[(3-tert-butyl-2-hydroxy-1,2-benzoxaborinin-6-yl)amino]-1-(trans-4-cyanotetrahydro-2H-pyran-3-yl)pyrazole-4-carboxamide]	< 0.01
CC(C)(C)C1=Cc2cc(Nc3nn([C@@H]4CCC[C@H]4C#N)cc3C(N)=O)ccc2OB1O (relative stereo) [Example 20, 3-[(3-tert-butyl-2-hydroxy-1,2-benzoxaborinin-6-yl)amino]-1-(trans-2-cyanocyclopentyl)pyrazole-4-carboxamide]	0.01 to 0.05
CC(C)(C)C1=Cc2cc(Nc3nn([C@@H]4CCCC[C@H]4C#N)cc3C(N)=O)ccc2OB1O (relative stereo) [Example 21, 3-[(3-tert-butyl-2-hydroxy-1,2-benzoxaborinin-6-yl)amino]-1-(trans-2-cyanocyclohexyl)pyrazole-4-carboxamide]	< 0.01
N#C[C@@H]1CCOC[C@H]1n1cc(C(N)=O)c(Nc2ccc3c(c2)C=C(CCO)B(O)O3)n1 (relative stereo) [Example 22, 1-[trans-4-cyanooxan-3-yl]-3-{[2-hydroxy-3-(2-hydroxyethyl)-2H-1,2-benzoxaborinin-6-yl]amino}-1H-pyrazole-4-carboxamide]	< 0.01
CC1=C(C)c2cc(Nc3nn([C@@H]4CCC[C@H]4C#N)cc3C(N)=O)cc(C)c2OB1O (relative stereo) [Example 24, 1-(trans-2-cyanocyclopentyl)-3-[(2-hydroxy-3,4,8-trimethyl-1,2-benzoxaborinin-6-yl)amino]pyrazole-4-carboxamide]	0.01 to 0.05
CC1=C(C)c2cc(Nc3nn([C@@H]4CCCC[C@H]4C#N)cc3C(N)=O)cc(C)c2OB1O (relative stereo) [Example 25, 1-(trans-2-cyanocyclohexyl)-3-[(2-hydroxy-3,4,8-trimethyl-1,2-benzoxaborinin-6-yl)amino]pyrazole-4-carboxamide]	0.01 to 0.05
CC1=Cc2cc(Nc3nn([C@@H]4CCCC[C@H]4C#N)cc3C(N)=O)ccc2OB1O (relative stereo) [Example 26, 1-[trans-2-cyanocyclohexyl]-3-[(2-hydroxy-3-methyl-1,2-benzoxaborinin-6-yl)amino]pyrazole-4-carboxamide]	< 0.01
N#C[C@@H]1CCOC[C@H]1n1cc(C(N)=O)c(Nc2cc3c(cc2F)OB(O)C=C3)n1 (relative stereo) [Example 29, 1-(trans-4-cyanotetrahydro-2H-pyran-3-yl)-3-[(7-fluoro-2-hydroxy-1,2-benzoxaborinin-6-yl)amino]pyrazole-4-carboxamide]	0.01 to 0.05
Cc1cc(Nc2nn([C@@H]3CCC[C@H]3C#N)cc2C(N)=O)cc2c1OB(O)C=C2 (relative stereo) [Example 31, 1-(trans-2-cyanocyclopentyl)-3-[(2-hydroxy-8-methyl-1,2-benzoxaborinin-6-yl)amino]pyrazole-4-carboxamide]	< 0.01
CC1=Cc2cc(Nc3nn([C@@H]4COCC[C@H]4C#N)cc3C(N)=O)cc(C)c2OB1O (relative stereo) [Example 32, 1-[trans-4-cyanotetrahydro-2H-pyran-3-yl]-3-[(2-hydroxy-3,8-dimethyl-1,2-benzoxaborinin-6-yl)amino]pyrazole-4-carboxamide]	< 0.01
CCC1=CB(O)Oc2ccc(Nc3nn([C@@H]4COCC[C@H]4C#N)cc3C(N)=O)cc21 (relative stereo) [Example 33, 1-(trans-4-cyanotetrahydro-2H-pyran-3-yl)-3-[(4-ethyl-2-hydroxy-1,2-benzoxaborinin-6-yl)amino]pyrazole-4-carboxamide]	< 0.01
CC(C)C1=CB(O)Oc2ccc(Nc3nn([C@@H]4CCCC[C@H]4C#N)cc3C(N)=O)cc21 (relative stereo) [Example 34, 1-(trans-2-cyanocyclohexyl)-3-[(2-hydroxy-4-isopropyl-1,2-benzoxaborinin-6-yl)amino]pyrazole-4-carboxamide]	0.01 to 0.05
CC(C)C1=CB(O)Oc2ccc(Nc3nn([C@@H]4CCC[C@H]4C#N)cc3C(N)=O)cc21 (relative stereo) [Example 35, 1-(trans-2-cyanocyclopentyl)-3-[(2-hydroxy-4-isopropyl-1,2-benzoxaborinin-6-yl)amino]pyrazole-4-carboxamide]	0.01 to 0.05
CCC1=C(CC)c2cc(Nc3nn([C@@H]4COCC[C@H]4C#N)cc3C(N)=O)ccc2OB1O (relative stereo) [Example 39, 1-(trans-4-cyanotetrahydro-2H-pyran-3-yl)-3-[(3,4-diethyl-2-hydroxy-1,2-benzoxaborinin-6-yl)amino]pyrazole-4-carboxamide]	< 0.01
CCC1=C(CC)c2cc(Nc3nn([C@@H]4CCC[C@H]4C#N)cc3C(N)=O)ccc2OB1O (relative stereo) [Example 40, 1-(trans-2-cyanocyclopentyl)-3-[(3,4-diethyl-2-hydroxy-1,2-benzoxaborinin-6-yl)amino]pyrazole-4-carboxamide]	0.01 to 0.05
CC(C)C1=Cc2cc(Nc3nn([C@@H]4CCCC[C@H]4C#N)cc3C(N)=O)ccc2OB1O (relative stereo) [Example 49, 1-(trans-2-cyanocyclohexyl)-3-[(2-hydroxy-3-isopropyl-1,2-benzoxaborinin-6-yl)amino]pyrazole-4-carboxamide]	< 0.01
